Among the data in patent US9493420B2, “Quinoline derivatives and uses thereof” (Portland State University, priority 2005, dated 2016) are IC50 values, retold here.

Structures are written as SMILES.

Assay [1] deals with T1, recombinant human serotonin (hSERT) transporter (Homo sapiens, UniProt P31645).
T1 construct: expressed in transfected cells; host or cells: HEK cells expressing hSERT
As to the kind of experiment: Inhibition of [3H]neurotransmitter uptake, hSERT. It counts as cell-based. How it is done: Selected RCQs were tested for inhibition of [^3H]neurotransmitter uptake by the recombinant human serotonin (hSERT), dopamine (HEK-hDAT), and norepinephrine (hNET) transporters by a modification of the method of Eshleman et al. (J. Pharmacol. Exp. Ther., 289(2):877-885, 1999). HEK-hDAT, hSERT, and -hNET expressing cells were grown on tissue culture dishes. After removing the medium and washing the plates with Ca^2+-, Mg^2+-free phosphate buffered saline (PBS), fresh medium was added and the plates were placed in a 25° C. water bath for 5 minutes. Cells were gently lifted from the plates and cell clusters separated by trituration. 50 μL aliquots of the suspended cells were added to assay tubes containing drugs and Krebs-HEPES assay buffer in a final volume of 0.5 mL.
Competition experiments were conducted in triplicate. After a 10 minute preincubation period at 25° C., [^3H]neurotransmitter (20 nM final concentration; [^3H]DA, [^3H]5-HT, or [^3H]NE) were added, and the mixtures incubated for 10 minutes. Reactions were terminated by filtration through Wallac filtermat A filters (presoaked in 0.05% polyethylenimine), using a Tomtec cell harvester. Scintillation fluid was added to each filtered spot, and radioactivity remaining on the filters determined using a Wallac 1205 Betaplate scintillation counter.
Specific uptake was defined as the difference in uptake observed in the absence and presence of 5 μM mazindol (hDAT and hNET) or 5 μM imipramine (hSERT). Inhibition of uptake was determined by non-linear regression using Prism software.

In assay [2] the test system is Dd2 (CQ^R) P. falciparum strain. As to the kind of experiment: In vitro fluorescence (Sybr Green I) growth inhibition assay, Dd2 strain. It counts as cell-based. As to conditions: Plasmodium falciparum, DD2; Table 13; growth inhibition; read-out: IC50 (nM) Dd2 (CQ^R). From the text: One exemplary method for measuring inhibitory effects of RCQ compound in vitro has been reported by Smilkstein et al. (Antimicrob. Agents Chemother., 48(5):1803-1806, 2004). This method employs fluorescent detection of the level of parasitemia in cultured red blood cells and can be automated for high-throughput screening of antimalarial RCQs. This exemplary method allows the inhibitory agent (such as a RCQ) to be in contact with the parasite for an entire developmental cycle without purine starvation, which is in contrast to the traditional ^3H-hypoxanthine method (Desjardins et al., Antimicrob. Agents Chemother., 16(6):710-718, 1979). Briefly, to perform the Smilkstein et al. method, an initial parasitemia of approximately 0.2% is attained by adding uninfected red blood cells (RBCs) to a stock culture of Plasmodium sp.-infected RBCs. […] After a period of incubation (such as about 72 hours), a sufficient amount (e.g., 100 μL) of a fluorescent DNA binding dye-detergent mixture (e.g., Sybr Green I dye-detergent mixture) to lyse cells and bind to DNA is added to the reactions. Because uninfected RBCs have no DNA, only parasite DNA (in infected RBCs) is available for binding to the fluorescent dye (e.g., Sybr Green I). Samples are then incubated in the dark for a period of time (e.g., one hour), followed by measurement of levels of fluorescence. For Sybr Green I, excitation and emission wavelength are 485 and 530 nm, respectively. Fluorescence readings, which represent the amount of parasite DNA in the sample, can be plotted against the Log [drug] and fit to a curve by nonlinear regression to obtain the IC50 value for the tested compound.
An in vitro fluorescence assay for determining IC50 of antimalarial drugs was performed as previously described by Smilkstein et al. (Antimicrob. Agents Chemother., 48(5):1803-1806, 2004). This relatively low-cost procedure can be automated for high-throughput screening of the antimalarial activities of RCQs described herein. Advantageous, this method also allows the tested agent (e.g, a RCQ) to be in contact with the parasite for an entire developmental cycle without purine starvation (which occurs with the commonly used ^3H-hypoxanthine method; see, e.g., Desjardins et al., Antimicrob. Agents Chemother., 16, (6):[…], 1979).
Briefly, an initial parasitemia of approximately 0.2% was attained by addition of uninfected red blood cells to a stock culture of cells infected with Dd2 (CQ^R) or D6 (CQ^S) P. falciparum strains. A 10 mM RCQ_02 solution (in DMSO) was prepared. RCQ_02 (at a final concentration from 10^−11 to 10^−4 M) and infected red blood cells (at a final concentration of 2% (v/v)) were mixed in 100 μL samples in individual wells of a 96-well plate. Each sample was prepared in triplicate. A triplicate set of reactions containing CQ (instead of RCQ_02) was included as a control. After a 72 hour incubation period, Sybr Green I dye-detergent mixture (100 μL) was added to each reaction. The samples were further incubated for an hour in the dark, and then placed in a 96-well fluorescence plate reader (Gemini-EM, […]) and analyzed with excitation and emission wavelength bands at 485 and 530 nm, respectively. Fluorescence readings were plotted against the Log [drug], and curve fitting performed by nonlinear regression to find the IC50 value.

T1 sequence (P31645 whole entry): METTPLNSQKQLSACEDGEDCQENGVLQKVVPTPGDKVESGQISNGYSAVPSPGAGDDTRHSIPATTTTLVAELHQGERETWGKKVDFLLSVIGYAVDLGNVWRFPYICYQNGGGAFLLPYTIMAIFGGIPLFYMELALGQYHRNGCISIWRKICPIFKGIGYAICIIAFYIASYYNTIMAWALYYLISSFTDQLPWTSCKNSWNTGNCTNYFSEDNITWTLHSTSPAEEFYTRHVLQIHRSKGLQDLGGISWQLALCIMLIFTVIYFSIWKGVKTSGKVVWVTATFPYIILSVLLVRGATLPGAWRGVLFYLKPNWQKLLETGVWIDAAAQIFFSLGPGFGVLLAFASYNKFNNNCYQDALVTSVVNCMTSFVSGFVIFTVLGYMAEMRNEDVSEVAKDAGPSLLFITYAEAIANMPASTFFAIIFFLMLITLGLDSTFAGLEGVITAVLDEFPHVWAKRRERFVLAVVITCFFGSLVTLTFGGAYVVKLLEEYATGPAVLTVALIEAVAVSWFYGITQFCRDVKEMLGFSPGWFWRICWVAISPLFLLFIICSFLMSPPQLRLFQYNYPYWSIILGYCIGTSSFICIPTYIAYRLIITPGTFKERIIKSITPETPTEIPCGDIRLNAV

Turning to `CN(CCCNc1ccnc2cc(Cl)ccc12)CCCN1c2ccccc2CCc2ccccc21` [RCQ_02, N′-(7-Chloro-quinolin-4-yl)-N-[3-(10,11-dihydro-dibenzo[b,f]azepin-5-yl)-propyl]-N-methyl-propane-1,3-diamine], the IC50 (commonly the concentration that inhibits the measured activity by half) was found to be 230 nM in assay [1] and 5.3 nM in assay [2].
